According to US20060094059A1, “Methods for identifying new drug leads and new therapeutic uses for known drugs” (Odyssey Thera, Inc., priority 2004, published 2006):

Columns and labels:
[1] = tested on: HSP90:Eef2k; assay: Protein-fragment complementation assay Hsp90:Eef2k; assay type: cell-based, human
Text: (§1) To construct dynamic assays for protein-protein complexes, we used a protein-fragment complementation assay strategy (PCAs) in intact human cells. (A variety of other suitable assays, and reporter options, are described in detail below.) The principle of PCA is that complementary polypeptide fragments (F[1] and F[2]) of a reporter protein or enzyme will fold into an active form only if fused to two proteins which interact and bring the complementary fragments of the reporter protein into proximity. Reconstitution of the fragments of the reporter protein generates a fluorescent signal that can be quantified in intact cells, and the amount of the signal is proportional to the amount of the protein-protein complex used in constructing the assay. Given a suitable reporter type, the subcellular location of the complex can also be measured.
Reporter fragments for PCA were generated by oligonucleotide synthesis (Blue Heron Biotechnology, Bothell, Wash.), starting with the sequence of yellow fluorescent protein (YFP). First, oligonucleotides coding for polypeptide fragments YFP[1]and YFP[2] […] Next, PCR mutagenesis was used to generate the mutant fragments IFP[1] and IFP[2]. The IFP[1] fragment corresponds to YFP[1]-(F46L, F64L, M153T) and the IFP[2] fragment corresponds to YFP[2]-(V163A, S175G). […] The YFP[1], YFP[2], IFP[1] and IFP[2] fragments were amplified by PCR to incorporate restriction sites and a linker sequence, described below, in configurations that would allow fusion of a gene of interest to either the 5′- or 3′-end of each reporter fragment. The reporter-linker fragment cassettes were subcloned into a mammalian expression vector (pcDNA3.1Z, Invitrogen) that had been modified to incorporate the replication origin (oriP) of the Epstein Barr virus (EBV). […] Additionally, these vectors still retain the SV40 origin, allowing for episomal expression in cell lines expressing the SV40 large T antigen (e.g. HEK293T, Jurkat or COS). […]

[2] = tested on: non-small cell lung carcinoma (A549) cells; assay: MTT proliferation assay, NSCLC; assay type: cell-based, Human; settings: Homo sapiens, Tumor Cell NSCLC (A549), 120 hours, read-out: Anti-proliferative IC-50
Protocol: (§2) Cells were maintained in various media as follows: A549, LoVo and PC-3 (Ham's F12K medium with 2 mM L-glutamine and 1.5 g/L sodium bicarbonate), MIA PaCa-2 (Dulbecco's modified Eagle's medium with 4 mM L-glutamine and 4.5 g/L glucose), U87-MG (MEM+Earle's BSS). Medium for each cell line was supplemented with 10% FBS and […] Penecillin/Streptomycin. All cells were grown in incubators set at 37° C., 5% CO2. Thiazolyl Blue Tetrazolium Bromide (MTT) based proliferation assays were performed to assess the anti-proliferative activities of the compounds on these cells. Cells were seeded in 96 well plates at a density of 750 cells/well 24 hours prior to compound treatment. The cells were incubated with varying concentrations of compounds for 120 hours. […] Drug treatment was performed in 5 replicate wells. Background absorbance was established by wells containing medium but no cells. Vehicle (DMSO) only was used as control. MTT (Sigma-Aldrich, St. Louis, Mo.) was added to each well at a final concentration of 0.5 mg/ml. Following a 2 hour incubation at 37° C., medium in the wells was replaced with 0.15 ml DMSO. The plates were agitated for 15 min using a microtiter plate shaker.

[3] = tested on: MAX:MYC; assay: Protein-fragment complementation assay MAX:MYC; assay type: cell-based, human; settings: hit in MYC/MAX assay; drugs screened at 10 micromolar
Text: as §1
(§3) Reporter fragments for PCA were generated by oligonucleotide synthesis (Blue Heron Biotechnology, Bothell, Wash.), starting with the sequence of yellow fluorescent protein (YFP). First, oligonucleotides coding for polypeptide fragments YFP[1]and YFP[2] […] Next, PCR mutagenesis was used to generate the mutant fragments IFP[1] and IFP[2]. The IFP[1] fragment corresponds to YFP[1]-(F46L, F64L, M153T) and the IFP[2] fragment corresponds to YFP[2]-(V163A, S175G). […]

[4] = tested on: HSP90:CDC37; assay: Protein-fragment complementation assay Hsp90:CDC37; assay type: cell-based, human
Text: as §1, §3

[5] = tested on: Smad3:HDAC; assay: Protein-fragment complementation assay Smad3:HDAC; assay type: cell-based, human; settings: hit in HDAC/SMAD3 assay; drugs screened at 10 micromolar
Text: as §1, §3

[6] = tested on: pancreatic carcinoma (MIA PaCa-2) cells; assay: MTT proliferation assay, pancreatic; assay type: cell-based, Human; settings: Homo sapiens, Tumor Cell Pancreatic (MIA PaCa-2), 120 hours, read-out: Anti-proliferative IC-50
Protocol: as §2

[7] = tested on: PIN1:JUN complexes; assay: Protein-fragment complementation assay PIN1:JUN; assay type: cell-based, human
Text: as §1, §3

IC50 [2]: 660 nM
IC50 [6]: 590 nM
Compound: O=C(Nc1ccc([N+](=O)[O-])cc1Cl)c1cc(Cl)ccc1O [Niclosamide]
level of HSP90:Eef2k complexes (intensity of the fluorescence) ([1]; FIG. 3D): decrease in the level
Assay activity ([1]; hit in HSP90/Eef2k assay, drugs screened at 10 micromolar): HSP90/Eef2k,
Assay activity [3]: MYC/MAX
level of HSP90:CDC37 complexes (intensity of the fluorescence) ([4]; FIG. 3D): decrease in the level
Assay activity ([4]; hit in HSP90/CDC37 assay, drugs screened at 10 micromolar): HSP90/CDC37,
Assay activity [5]: HDAC/SMAD3,
level of PIN1:JUN complexes (intensity of the fluorescence) ([7]; FIG. 3A): decrease in the level
Assay activity ([7]; hit in PIN1/JUN assay, drugs screened at 10 micromolar): PIN1/JUN,
